Test results: US5416119A, “Alkylaminoalkyl-terminated sulfide/sulfonyl-containing cycloalkyl-alanine amino-diol compounds for treatment of hypertension” (G. D. Searle & Co., priority 1993, dated 1995)

Target: T1, Human Renin (Homo sapiens, UniProt P00797)
T1 construct: purchased National Institute for Biological Standards, London
T1 sequence (P00797 67-406): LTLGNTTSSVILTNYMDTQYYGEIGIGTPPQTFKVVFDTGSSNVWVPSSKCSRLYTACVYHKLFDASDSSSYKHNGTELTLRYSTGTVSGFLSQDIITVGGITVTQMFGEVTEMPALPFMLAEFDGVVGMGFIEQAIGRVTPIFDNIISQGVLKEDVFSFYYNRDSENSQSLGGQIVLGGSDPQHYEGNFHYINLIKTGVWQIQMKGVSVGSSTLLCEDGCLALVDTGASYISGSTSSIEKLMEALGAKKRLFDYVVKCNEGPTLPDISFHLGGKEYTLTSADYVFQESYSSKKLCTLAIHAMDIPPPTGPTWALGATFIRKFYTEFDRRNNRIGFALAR
Experiment: Human renin inhibition in vitro (angiotensin I produced, determined by radioimmunoassay)
Type: biochemical
Conditions: human plasma, pH 7.4, 37° C., two hours
Protocol: Compounds of Formula I were evaluated as inhibitors of human renin in an in vitro assay, as follows: This human renin inhibition test has been previously described in detail [Papaioannou et al., Clinical and Experimental Hypertension, A7(9), 1243-1257 (1985)]. Human renin was obtained from the National Institute for Biological Standards, London. An incubation mixture was prepared containing the following components: in a total volume of 0.25 mL: 100 mM Tris-acetate buffer at pH 7.4, 25×10^-6 Goldblatt units of renin, 0.05 mL of plasma from human volunteers taking oral contraceptives, 6.0 mM Na-EDTA, 2.4 mM phenylmethyl sulfonyl fluoride, 1.5 mM 8-hydroxyquinoline, 0.4 mg/mL bovine serum albumin (BSA), and 0.024 mg/mL neomycin sulfate. This mixture was incubated for two hours at 37° C. in the presence or absence of renin inhibitors. The produced angiotensin I was determined by radioimmunoassay (New England Nuclear kit). Test compounds to be assayed were dissolved in DMSO and diluted with 100 mM Tris-acetate buffer at pH 7.4 containing 0.5% BSA to the appropriate concentration. The final concentration of organic solvent in the reaction mixture was less than 1%. Control incubations at 37° C. were used to correct for effects of organic solvent on renin activity.

Question: `CC(C)C[C@H](O)[C@H](O)[C@H](CC1CCCCC1)NC(=O)C(CC1CC1)NC(=O)C(Cc1ccccc1)CS(=O)(=O)CCN(C)C` (stereo partly drawn) [Example 1, N-[2-[[1S,1R*-(cyclohexylmethyl)-2S*,3R* -dihydroxy-5-methylhexyl]amino]-1R*-(cyclopropylmethyl)-2-oxoethyl]-α-[[[2-(dimethylamino)ethyl]sulfonyl]methyl]benzenepropanamide] was tested. Which IC50 did it give?
Answer: 1.3 nM
